Experimental data: patent US12655116B2, “Substituted isophthalic acid diamides” (Bayer Aktiengesellschaft, priority 2020, dated 2026)

Key:
AMARE [1] = assay: Pre-emergence herbicidal action against AMARE; assay type: in vivo, Amaranthus retroflexus; details: Amaranthus retroflexus, 504 h, scored visually after 3 weeks vs untreated controls, 100% = plants have died, 0% = like control plants
Method in brief: (§1)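 Herbicidal effect was assessed 3 weeks after treatment by visual comparison with untreated controls, 100% denoting dead plants. Aqueous WP or EC preparations had been applied at 600 to 800 l/ha with 0.2% wetting agent to the soil covering freshly sown seeds.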

ABUTH [2] = assay: Pre-emergence herbicidal action against ABUTH; assay type: in vivo, Abutilon theophrasti; details: Abutilon theophrasti, 504 h; for pest or weed control at 80 g/ha: scored visually after 3 weeks vs untreated controls (100% = plants have died, 0% = like control plants); for pest or weed control at 20 g/ha: dosage 20 g/ha, scored visually after 3 weeks vs untreated controls, 100% = plants have died, 0% = like control plants, read-out: Pre-emergence action against ABUTH (herbicidal activity in percent)
Method in brief: as §1

AMARE [3] = assay: Post-emergence herbicidal action against AMARE; assay type: in vivo, Amaranthus retroflexus; details: Amaranthus retroflexus, 504 h, 20 g/ha, visual assessment about 3 weeks after treatment, 100% = plants have died, 0% = like control plants
Method in brief: (§2)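 Herbicidal effect was scored visually in percent after about 3 weeks in the greenhouse. Plants had been raised in sandy loam and treated post-emergence at the one-leaf stage with formulated compound at 600 to 800 l/ha water plus 0.2% wetting agent.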

POLCO [4] = assay: Post-emergence herbicidal action against POLCO; assay type: in vivo, Polygonum convolvulus; details: Fallopia convolvulus, 504 h, dosage 20 g/ha
Method in brief: as §2

SETVI [5] = assay: Pre-emergence herbicidal action against SETVI; assay type: in vivo, Setaria viridis; details: Setaria viridis, 504 h; for pest or weed control at 80 g/ha: dosage 80 g/ha
Method in brief: as §1

ALOMY [6] = assay: Post-emergence herbicidal action against ALOMY; assay type: in vivo, Alopecurus myosuroides; details: Alopecurus myosuroides, 504 h, dosage 20 g/ha, visual assessment about 3 weeks after treatment vs untreated controls
Method in brief: as §2

HORMU = assay: Pre-emergence herbicidal action against HORMU; assay type: in vivo, Hordeum murinum; details: for pest or weed control at 80 g/ha: Hordeum murinum, 504 h, pre-emergence
Method in brief: as §1

VIOTR [7] = assay: Pre-emergence herbicidal action against VIOTR; assay type: in vivo, Viola tricolor; details: Viola tricolor, 504 h; for pest or weed control at 20 g/ha: dosage 20 g/ha; for pest or weed control at 80 g/ha: dosage 80 g/ha
Method in brief: as §1

ALOMY [8] = assay: Pre-emergence herbicidal action against ALOMY; assay type: in vivo, Alopecurus myosuroides; details: Alopecurus myosuroides, 504 h, pre-emergence; for pest or weed control at 80 g/ha: scored visually after 3 weeks vs untreated controls (100% = plants have died, 0% = like control plants); for pest or weed control at 20 g/ha: scored visually after 3 weeks, 100% = plants have died, 0% = like control plants
Method in brief: as §1

VIOTR [9] = assay: Post-emergence herbicidal action against VIOTR; assay type: in vivo, Viola tricolor; details: Viola tricolor, 504 h
Method in brief: as §2

LOLRI = assay: Pre-emergence herbicidal action against LOLRI; assay type: in vivo, Lolium rigidum; details: Lolium rigidum, 504 h, 80 g/ha
Method in brief: as §1

MATIN [10] = assay: Pre-emergence herbicidal action against MATIN; assay type: in vivo, Matricaria inodora; details: Tripleurospermum inodorum, 504 h; for pest or weed control at 20 g/ha: dosage 20 g/ha; for pest or weed control at 80 g/ha: dosage 80 g/ha
Method in brief: as §1

VERPE = assay: Pre-emergence herbicidal action against VERPE; assay type: in vivo, Veronica persica; details: Veronica persica, 504 h, dosage 80 g/ha
Method in brief: as §1

ABUTH [11] = assay: Post-emergence herbicidal action against ABUTH; assay type: in vivo, Abutilon theophrasti; details: Abutilon theophrasti, 504 h, visual assessment about 3 weeks after treatment vs untreated controls; for pest or weed control at 5 g/ha: dosage 5 g/ha; for pest or weed control at 20 g/ha: dosage 20 g/ha
Method in brief: as §2

MATIN [12] = assay: Post-emergence herbicidal action against MATIN; assay type: in vivo, Matricaria inodora; details: Tripleurospermum inodorum, 504 h; for pest or weed control at 20 g/ha: dosage 20 g/ha
Method in brief: as §2

ECHCG [13] = assay: Pre-emergence herbicidal action against ECHCG; assay type: in vivo, Echinochloa crus-galli; details: Echinochloa crus-galli, 504 h
Method in brief: as §1

DIGSA [14] = assay: Pre-emergence herbicidal action against DIGSA; assay type: in vivo, Digitaria sanguinalis; details: Digitaria sanguinalis, 504 h; for pest or weed control at 20 g/ha: dosage 20 g/ha; for pest or weed control at 80 g/ha: dosage 80 g/ha
Method in brief: as §1

STEME [15] = assay: Pre-emergence herbicidal action against STEME; assay type: in vivo, Stellaria media; details: Stellaria media, 504 h; for pest or weed control at 20 g/ha: dosage 20 g/ha; for pest or weed control at 80 g/ha: dosage 80 g/ha
Method in brief: as §1

AVEFA [16] = assay: Post-emergence herbicidal action against AVEFA; assay type: in vivo, Avena fatua; details: Avena fatua, 504 h, 20 g/ha, visual assessment about 3 weeks after treatment, 100% = plants have died, 0% = like control plants
Method in brief: as §2

ECHCG [17] = assay: Post-emergence herbicidal action against ECHCG; assay type: in vivo, Echinochloa crus-galli; details: Echinochloa crus-galli, 504 h, dosage 20 g/ha
Method in brief: as §2

AVEFA [18] = assay: Pre-emergence herbicidal action against AVEFA; assay type: in vivo, Avena fatua; details: Avena fatua, 504 h, pre-emergence; for pest or weed control at 20 g/ha: scored visually after 3 weeks, 100% = plants have died, 0% = like control plants
Method in brief: as §1

STEME [19] = assay: Post-emergence herbicidal action against STEME; assay type: in vivo, Stellaria media; details: Stellaria media, 504 h; for pest or weed control at 5 g/ha: dosage 5 g/ha
Method in brief: as §2

DIGSA [20] = assay: Post-emergence herbicidal action against DIGSA; assay type: in vivo, Digitaria sanguinalis; details: Digitaria sanguinalis, 504 h
Method in brief: as §2

POLCO [21] = assay: Pre-emergence herbicidal action against POLCO; assay type: in vivo, Polygonum convolvulus; details: Fallopia convolvulus, 504 h, dosage 80 g/ha
Method in brief: as §1

PHBPU [22] = assay: Pre-emergence herbicidal action against PHBPU; assay type: in vivo, Pharbitis purpurea; details: Ipomoea purpurea, 504 h, dosage 80 g/ha
Method in brief: as §1

SETVI [23] = assay: Post-emergence herbicidal action against SETVI; assay type: in vivo, Setaria viridis; details: Setaria viridis, 504 h
Method in brief: as §2

PHBPU [24] = assay: Post-emergence herbicidal action against PHBPU; assay type: in vivo, Pharbitis purpurea; details: Ipomoea purpurea, 504 h, dosage 20 g/ha
Method in brief: as §2

Row | Structure (SMILES) | pest or weed control at 20 g/ha (AMARE [1]) [%] | pest or weed control at 80 g/ha (AMARE [1]) [%] | pest or weed control at 80 g/ha (ABUTH [2]) [%] | pest or weed control at 20 g/ha (ABUTH [2]) [%] | pest or weed control at 20 g/ha (AMARE [3]) [%] | pest or weed control at 20 g/ha (POLCO [4]) [%] | pest or weed control at 80 g/ha (SETVI [5]) [%] | pest or weed control at 20 g/ha (ALOMY [6]) [%] | pest or weed control at 80 g/ha (HORMU) [%] | pest or weed control at 20 g/ha (VIOTR [7]) [%] | pest or weed control at 80 g/ha (VIOTR [7]) [%] | pest or weed control at 80 g/ha (ALOMY [8]) [%] | pest or weed control at 20 g/ha (ALOMY [8]) [%] | pest or weed control at 5 g/ha (VIOTR [9]) [%] | pest or weed control at 20 g/ha (VIOTR [9]) [%] | pest or weed control at 80 g/ha (LOLRI) [%] | pest or weed control at 20 g/ha (MATIN [10]) [%] | pest or weed control at 80 g/ha (MATIN [10]) [%] | pest or weed control at 80 g/ha (VERPE) [%] | pest or weed control at 5 g/ha (ABUTH [11]) [%] | other results
1 | CCNC(=O)c1c(C(F)(F)F)ccc(C(=O)Nc2nnnn2CC)c1Cl [Example 2-130] | 100 | 100 | 100 | 100 | 100 | 80 | 100 | 80 | 100 | 100 | 100 | 100 | 90 | 90 | 100 | 100 | 100 | 100 | 80 | 90 | pest or weed control at 20 g/ha (SETVI [5]; dosage 20 g/ha): 90%; Pre-emergence action against HORMU (HORMU; 20 g/ha, scored visually after 3 weeks, 100% = plants have died, 0% = like control plants): 90%; pest or weed control at 20 g/ha (ABUTH [11]): 90%; pest or weed control at 20 g/ha (MATIN [12]): 80%; pest or weed control at 20 g/ha (ECHCG [13]; 20 g/ha): 80%; pest or weed control at 80 g/ha (ECHCG [13]): 100%; pest or weed control at 20 g/ha (DIGSA [14]): 100%; pest or weed control at 80 g/ha (DIGSA [14]): 100%; pest or weed control at 20 g/ha (STEME [15]): 100%; pest or weed control at 80 g/ha (STEME [15]): 100%; pest or weed control at 20 g/ha (AVEFA [16]): 90%; pest or weed control at 20 g/ha (ECHCG [17]): 80%; pest or weed control at 80 g/ha (AVEFA [18]): 100%; pest or weed control at 20 g/ha (AVEFA [18]): 90%; pest or weed control at 20 g/ha (STEME [19]): 80%; pest or weed control at 5 g/ha (STEME [19]): 80%; pest or weed control at 5 g/ha (DIGSA [20]): 80%; pest or weed control at 20 g/ha (DIGSA [20]): 80%
2 | CCn1nnnc1NC(=O)c1ccc(C(F)F)c(C(=O)NC2CC2)c1Cl [Example 2-149] | 100 | 100 | 100 | 100 | 100 | 80 | 100 | 80 | 90 | 100 | 100 | 90 | 80 | 100 | 100 | 90 | 90 | 100 | 80 | 80 | pest or weed control at 80 g/ha (POLCO [21]): 100%; pest or weed control at 20 g/ha (ABUTH [11]): 100%; pest or weed control at 80 g/ha (PHBPU [22]): 80%; pest or weed control at 5 g/ha (MATIN [12]; dosage 5 g/ha): 90%; pest or weed control at 20 g/ha (MATIN [12]): 100%; pest or weed control at 80 g/ha (ECHCG [13]): 90%; pest or weed control at 20 g/ha (DIGSA [14]): 90%; pest or weed control at 80 g/ha (DIGSA [14]): 100%; pest or weed control at 20 g/ha (STEME [15]): 100%; pest or weed control at 80 g/ha (STEME [15]): 100%; pest or weed control at 5 g/ha (SETVI [23]; dosage 5 g/ha): 90%; pest or weed control at 20 g/ha (SETVI [23]; dosage 20 g/ha): 100%; pest or weed control at 20 g/ha (PHBPU [24]): 90%; pest or weed control at 20 g/ha (ECHCG [17]): 80%; pest or weed control at 80 g/ha (AVEFA [18]): 100%; pest or weed control at 20 g/ha (AVEFA [18]): 80%; pest or weed control at 20 g/ha (STEME [19]): 90%; pest or weed control at 5 g/ha (STEME [19]): 90%; pest or weed control at 5 g/ha (DIGSA [20]): 100%; pest or weed control at 20 g/ha (DIGSA [20]): 100%
